Data reported in article PMC5651824, “Membrane binding of the insertion sequence of Proteus vulgaris L-amino acid deaminase stabilizes protein structure and increases catalytic activity” (Scientific Reports, 2017).

Tests used:
[1] = target: T1, ΔN-pvLAAD (Proteus vulgaris, UniProt Q9LCB2); experiment: phenylpyruvate formation, absorbance at […] nm; type: biochemical; details: without membrane; 25 mM substrate; 50 mM potassium phosphate pH 7.5; 25 °C; 10 µM enzyme
T1 construct: gene LAD; N-terminal Tat peptide truncated, residues 30-471; recombinant in E. coli M15, Ni-NTA (His tag) and size exclusion
T1 sequence (Q9LCB2 30-471): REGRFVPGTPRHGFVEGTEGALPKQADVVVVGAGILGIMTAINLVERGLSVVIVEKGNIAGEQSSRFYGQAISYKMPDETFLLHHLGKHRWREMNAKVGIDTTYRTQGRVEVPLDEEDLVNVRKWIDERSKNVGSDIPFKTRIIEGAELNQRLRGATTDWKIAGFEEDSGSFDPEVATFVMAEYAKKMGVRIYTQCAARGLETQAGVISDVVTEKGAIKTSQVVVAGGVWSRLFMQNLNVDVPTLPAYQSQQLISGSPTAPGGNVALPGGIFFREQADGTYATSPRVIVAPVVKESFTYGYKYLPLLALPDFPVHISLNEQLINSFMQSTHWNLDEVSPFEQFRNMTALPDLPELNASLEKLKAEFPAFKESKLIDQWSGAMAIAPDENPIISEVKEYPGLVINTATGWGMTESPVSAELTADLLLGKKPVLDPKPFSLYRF

[2] = substrate: N[C@@H](Cc1ccccc1)C(=O)O; experiment: purified protein; type: biochemical, Proteus vulgaris; details: without membrane, 50 mM potassium phosphate pH 7.5, 37 °C, 5 µM enzyme, 5 min

For `N[C@@H](Cc1ccccc1)C(=O)O` [L-phenylalanine], the “phenylpyruvate formation, absorbance at 321 nm” value [1] was “does not affect the catalytic activity of pvLAAD in solution”.

B1: FL-pvLAAD (Proteus vulgaris) (protein)
chain: MAISRRKFIIGGTVVAVAAGAGILTPMLTREGRFVPGTPRHGFVEGTEGALPKQADVVVVGAGILGIMTAINLVERGLSVVIVEKGNIAGEQSSRFYGQAISYKMPDETFLLHHLGKHRWREMNAKVGIDTTYRTQGRVEVPLDEEDLVNVRKWIDERSKNVGSDIPFKTRIIEGAELNQRLRGATTDWKIAGFEEDSGSFDPEVATFVMAEYAKKMGVRIYTQCAARGLETQAGVISDVVTEKGAIKTSQVVVAGGVWSRLFMQNLNVDVPTLPAYQSQQLISGSPTAPGGNVALPGGIFFREQADGTYATSPRVIVAPVVKESFTYGYKYLPLLALPDFPVHISLNEQLINSFMQSTHWNLDEVSPFEQFRNMTALPDLPELNASLEKLKAEFPAFKESKLIDQWSGAMAIAPDENPIISEVKEYPGLVINTATGWGMTESPVSAELTADLLLGKKPVLDPKPFSLYRF
notes: full-length with non-cleaved N-terminal Tat peptide (ends at residue 471); recombinant in E. coli M15, Ni-NTA (His tag) and size exclusion
B1 showed a Km [2] of 12.56 ± 3.19 mM.
